In brackets after ≈: the same amount, converted by molar mass. Like-named read-outs stand apart in the source and are kept apart here.
System: blood tripomastigote forms of different lines of Trypanosoma cruzi
Assay: Tripanocidal activity: percentual of lysis of blood tripomastigote forms in infected mouse blood
Type: cell-based
Conditions: for killing at 25 µg/mL / IC50 / killing at 50 µg/mL: Trypanosoma cruzi; for killing at 25 µg/mL: read-out: % lysis; for anti-Chagas activity: statement in words
Procedure: Evaluation of the tripanocidal activity was made by checking percentual of lysis from blood tripomastigote forms of different lines of Trypanosoma cruzi, isolated from […] of mice on the parasitemic peak. Biological essays have been made on 200 μl titration microplaques containing about […] forms of the parasite in each milliliter of used blood. Substance concentrations as used for evaluation were of 10, 25 and 50 μg/ml, which were solubilized under PBS buffer containing 5% dimethyl sulfoxide. After adding substances, infected blood has been incubated at 4° C. under constant shaking for a 24-hour period. After that period, the quantity of parasites surviving to the action of substances was counted in an optical microscope and in comparison to the negative control group (infected blood, adding the solution used to solubilized substances), calculations concerning the determination of lysis percentual have been made. As a positive control, gentian violet has been used under concentration of 250 μg/ml, as indicated for chemoprophylaxis. All essays have been made in triplicate.
The biological activity protocol as described above is already fully published and used in the scientific field, being therefore standardized regarding tripanocidal activity (chemoprophylaxis and susceptibility evaluation for the parasite).
Various scientific works using this method, which is even presented in the original evaluation work for the biological activity of cubebin, as published by Bastos and contributors in 1999.

[1] = 50 μg/ml, infected blood, 4° C., 24 h
[2] = 25 μg/ml, infected blood, 4° C., 24 h
[3] = lysis of blood tripomastigotes, 24 h at 4° C., read-out: IC50

Structure (SMILES)	% lysis [1]	killing at 25 µg/mL [2] [%]	IC50 [3] [µg/mL]	anti-Chagas activity	killing at 50 µg/mL [1] [%]	% lysis (250 μg/ml (positive control), infected blood, 4° C., 24 h)	IC50 (24 h) [µg/mL]	killing at 25 µg/mL (24 h) [%]
CC(=O)OC1OC[C@H](Cc2ccc3c(c2)OCO3)[C@H]1Cc1ccc2c(c1)OCO2 (stereo partly drawn) [O-acetyl cubebin, O-acetyl Cubebin]	50/100%	76.2	16.9 (≈ 42.4 µM)	bear anti-Chagas activity	–	–	–	–
COC1OC[C@H](Cc2ccc3c(c2)OCO3)[C@H]1Cc1ccc2c(c1)OCO2 (stereo partly drawn) [O-methyl cubebin, O-methyl Cubebin]	–	13.9	86.3 (≈ 233 µM)	bear anti-Chagas activity	62	–	–	–
CN(C)c1ccc(C(=C2C=CC(=[N+](C)C)C=C2)c2ccc(N(C)C)cc2)cc1 [Gentian violet, gentian violet, reference compound]	–	–	76	–	–	250/100%	–	–
CN(C)CCOC1OC[C@H](Cc2ccc3c(c2)OCO3)[C@H]1Cc1ccc2c(c1)OCO2 (single isomer, unassigned; (-)) [O-dimethylethylamine cubebin, (−)-O-dimethylethylamine-cubebin]	50/100%	90.1	3 (≈ 7.02 µM)	bear anti-Chagas activity	–	–	–	–
COc1ccc(C[C@H]2C(=O)OC[C@@H]2Cc2ccc3c(c2)OCO3)cc1OC [Metilpluviatolide, methylpluviatolide]	50/100%	–	–	bear anti-Chagas activity	–	–	1.3 (≈ 3.51 µM)	99
OC1OC[C@H](Cc2ccc3c(c2)OCO3)[C@H]1Cc1ccc2c(c1)OCO2 (stereo partly drawn) [Cubebin, cubebin]	–	7.3	97.6 (≈ 274 µM)	bear anti-Chagas activity	52.3	–	–	–
O=C1OC[C@H](Cc2ccc3c(c2)OCO3)[C@H]1Cc1ccc2c(c1)OCO2 [Hinokinin]	–	80.1	0.9 (≈ 2.54 µM)	bear anti-Chagas activity	95.4	–	–	–
O=C1OC[C@H](Cc2cc3c(cc2[N+](=O)[O-])OCO3)[C@H]1Cc1cc2c(cc1[N+](=O)[O-])OCO2 [6,6′-Dinitrohinokinin, 6, 6′-Dinitrohinokinin]	–	–	37.1 (≈ 83.5 µM)	bear anti-Chagas activity	82.8	–	–	57.6

Source: US7521569B2, “Process to obtain dibenzylbutyrolactonic lignans, process to obtain synthetic derivatives from lignans bearing anti-Chagas chemoprophylactic and therapeutical activities” (Fundação De Amparo À Pesquisa Do Estado de São Paulo, priority 2002, dated 2009)
